Assay results taken from ChEMBL document CHEMBL3507680, “University of Dundee, Gates Library screen for HepG2 cell viability”.

Experiment: Human HepG2 cell viability assay in 384 well format
Type: toxicity, cell-based
Parameters: dose 125 nL, time 70.5 hour; concentration not given beside the values
Conditions: HepG2 cells, read-out: Inhibition

Cc1[nH]ncc1C(=O)N1CCOC(c2cccs2)C1 (stereo not given)
cytotoxicity at 70.5 h: 25.7%

c1cncc(CNc2cccc(OCCN3CCCCC3)c2)c1
cytotoxicity at 70.5 h: -11.5%

CCOC(C)c1noc(CN2CCN(Cc3ccno3)CC2)n1 (stereo not given)
cytotoxicity at 70.5 h: -3.49%

CCOC(C)c1noc(CN2CCCN(c3ccccn3)CC2)n1 (stereo not given)
cytotoxicity at 70.5 h: -12.6%

CC(C)c1nc(CC(=O)N(C)Cc2ccc3c(c2)OCO3)cs1
cytotoxicity at 70.5 h: -6.29%

CCN(C(c1cccnc1)c1ccc(F)c(F)c1)S(C)(=O)=O (stereo not given)
cytotoxicity at 70.5 h: -4.7%

CCOc1ccc(CC(=O)Nc2cnccc2SCCCO)cc1
cytotoxicity at 70.5 h: -6.43%

CCN(C(c1ccc(OC)cc1)c1cccnc1)S(C)(=O)=O (stereo not given)
cytotoxicity at 70.5 h: -9.72%

CC1CCCN(C(=O)CCNS(=O)(=O)c2cccnc2)C1 (stereo not given)
cytotoxicity at 70.5 h: 1.82%

O=C(NC1CC1)C1CCCN1c1ncnc2ccsc12 (stereo not given)
cytotoxicity at 70.5 h: -9.43%

O=C(CCNS(=O)(=O)c1ccccc1)N1CCOC(c2ccccc2)C1 (stereo not given)
cytotoxicity at 70.5 h: -18%

CCN(CC(=O)N(C)C)C(=O)c1cc(-c2cccc(Cl)c2)no1
cytotoxicity at 70.5 h: 3.05%

CCN(CC)C(=O)c1cc(-c2cccc(Cl)c2)no1
cytotoxicity at 70.5 h: -5.28%

CC(CC#N)N1CCN(C(=O)OC(C)(C)C)CC1 (stereo not given)
cytotoxicity at 70.5 h: 13.3%

c1cc(-c2noc(CN3CCc4c(ncn4C4CC4)C3)n2)cs1
cytotoxicity at 70.5 h: -20.1%

CCNC(=O)CN(CC)C(=O)c1cc(-c2cccc(Cl)c2)no1
cytotoxicity at 70.5 h: -0.184%

CC(C)CC(C#N)NC(=O)COC1CCCCC1 (stereo not given)
cytotoxicity at 70.5 h: -8.86%

CCN(CC)C(=O)CN(C)C(=O)c1cc(-c2cccc(Cl)c2)no1
cytotoxicity at 70.5 h: -15.3%

CN(CCc1ccncc1)C(=O)C1CSCN1C(=O)C1CCCC1 (stereo not given)
cytotoxicity at 70.5 h: -5.06%

CC(=O)Nc1cccc(CNC(=O)N(C)Cc2ccccc2)c1
cytotoxicity at 70.5 h: -8.01%

O=C(NCCc1nnc2n1CCC2)c1ccccc1OC1CCCC1
cytotoxicity at 70.5 h: -9.31%

O=S(=O)(c1cccnc1)N1CCCC1COc1ccccc1 (stereo not given)
cytotoxicity at 70.5 h: -4.52%

CCN(CCC(F)(F)F)S(=O)(=O)c1cccc(F)c1C#N
cytotoxicity at 70.5 h: -4.04%

CC(C)Oc1ccccc1C(=O)NCCc1nncn1C
cytotoxicity at 70.5 h: -6.83%

c1ccc(-c2nc(CN3CCn4c(nnc4C4CC4)C3)no2)cc1
cytotoxicity at 70.5 h: -9.58%

CC(C)C1CN(S(=O)(=O)Cc2cccc(C#N)c2)CCS1 (stereo not given)
cytotoxicity at 70.5 h: -9.85%

CC(C)C1CN(S(=O)(=O)c2ccc(C#N)cc2)CCS1 (stereo not given)
cytotoxicity at 70.5 h: -11.1%

Cc1cccc(-c2noc(CN3CCn4c(nnc4C4CC4)C3)n2)c1
cytotoxicity at 70.5 h: -5%

c1coc(-c2noc(CN3CCc4c(ncn4C4CC4)C3)n2)c1
cytotoxicity at 70.5 h: 1.12%

CC(C)CC(CCO)CNC(=O)N1CC(C)(C)C1(C)C (stereo not given)
cytotoxicity at 70.5 h: -7.83%

Cc1ccc(OCCN(C)Cc2ccc(S(=O)(=O)N(C)C)o2)cc1
cytotoxicity at 70.5 h: -5.02%

Cc1ccc(-c2nnc(C(C)N3CCc4cncnc4C3)o2)cc1 (stereo not given)
cytotoxicity at 70.5 h: 1.38%

CC(O)CN1CCC(CN(C)C(=O)NC2CC2)CC1 (stereo not given)
cytotoxicity at 70.5 h: -1.96%

NC(=O)CN(Cc1ccc(Br)cc1)C(=O)c1cccnc1
cytotoxicity at 70.5 h: -3.52%

O=C(Nc1ccccc1Cn1cccn1)N1CCCC(N2CCCC2)C1 (stereo not given)
cytotoxicity at 70.5 h: 16.1%

COC(=O)C(C)(C)S(=O)(=O)c1ccc(Br)cc1
cytotoxicity at 70.5 h: -1.38%

Cc1ccc(N(C)C2CCN(C(=O)c3n[nH]c4c3CCC4)CC2)nn1
cytotoxicity at 70.5 h: -3.25%

CC(C)(C(=O)O)S(=O)(=O)c1ccc(Br)cc1
cytotoxicity at 70.5 h: 0.0653%

O=C1C(Sc2nnnn2C2CC2)CCN1c1ccccc1Cl (stereo not given)
cytotoxicity at 70.5 h: -6.47%

Cc1nc(O)ccc1C(=O)NCc1ncccc1F
cytotoxicity at 70.5 h: -2.33%

N#CCCN(CC(F)(F)F)C(=O)c1cc(-n2cccn2)ccn1
cytotoxicity at 70.5 h: -3.35%

Cc1cc(CNC2(c3ccccc3F)CC2)no1
cytotoxicity at 70.5 h: -4.02%

Cc1nc(CN(C)c2cc(N3CCCC3CO)ncn2)cs1 (stereo not given)
cytotoxicity at 70.5 h: -3.26%

Cc1cnn(CCNCc2c(C)nn(-c3ccccc3)c2C)c1
cytotoxicity at 70.5 h: 2.45%

N#Cc1ccnc(N2CCN(C(=O)c3ccc4c(c3)CCO4)CC2)c1
cytotoxicity at 70.5 h: -3.35%

O=S(=O)(NCCSc1nccn1C1CC1)c1ccccc1
cytotoxicity at 70.5 h: -3.08%

COCCN(CCOC)C(=O)c1cc(F)cc2[nH]cnc12
cytotoxicity at 70.5 h: -4.53%

CCN(CC)C(=O)c1cccc(Cn2nc(C)cc2C)c1
cytotoxicity at 70.5 h: -8.82%

Cc1nn(CN(CC2CCOC2)C2CC2)c(=O)c2ccccc12 (stereo not given)
cytotoxicity at 70.5 h: -3.01%

N#Cc1c(Cl)nsc1N1CCN(CC2CCCCC2)CC1
cytotoxicity at 70.5 h: 0.793%

COC(=O)NC1(C(=O)Nc2ccc(-c3cc[nH]n3)cc2)CCCC1
cytotoxicity at 70.5 h: -0.955%

COC(=O)NC1(C(=O)Nc2ccc(-c3ncc[nH]3)cc2)CCCC1
cytotoxicity at 70.5 h: 1.15%

O=C(O)CC1CN(S(=O)(=O)c2cccc(F)c2)c2ccccc21 (stereo not given)
cytotoxicity at 70.5 h: 22.7%

Cc1cc(NS(=O)(=O)CC2CCCCO2)ccc1F (stereo not given)
cytotoxicity at 70.5 h: -2.48%

N#Cc1cc(NS(=O)(=O)CC2CCCCO2)ccc1F (stereo not given)
cytotoxicity at 70.5 h: -0.517%

COCCCOC1CN(C(=O)c2[nH]nc3c2CCCC3)C1
cytotoxicity at 70.5 h: 4%

CC(C)(C)OC(=O)N1CCCN1C(=O)c1cccc2cc[nH]c12
cytotoxicity at 70.5 h: 3.87%

Cc1ccc(-c2ncc(CNc3cnccc3CO)s2)o1
cytotoxicity at 70.5 h: -2.69%

Cc1ncc(CNc2cnccc2CO)s1
cytotoxicity at 70.5 h: 6.67%

CSC1(CNC(=O)NC(C)c2ccc(F)cc2)CCOCC1 (stereo not given)
cytotoxicity at 70.5 h: 6.41%

COCCN(CCOC)C(=O)c1ccc(Cn2nc(C)cc2C)cc1
cytotoxicity at 70.5 h: 7.43%

Cc1cc(CN(CCCO)c2ccccc2)on1
cytotoxicity at 70.5 h: -0.833%

Cc1cc(CN(CCO)c2ccccc2)on1
cytotoxicity at 70.5 h: 0.618%

Cc1csc(CNc2cnn(C(C)C)c2)n1
cytotoxicity at 70.5 h: 3.67%

Cc1csc(CNc2cnn(CC(F)(F)F)c2)n1
cytotoxicity at 70.5 h: -2.55%

COc1cccc(C(O)C(=O)N(C)CCc2ccccn2)c1 (stereo not given)
cytotoxicity at 70.5 h: -0.0669%

CC(=O)N(Cc1noc(C)n1)C1CCN(CC2CCCC2)C1 (stereo not given)
cytotoxicity at 70.5 h: 23.3%

O=C1CCCN1c1cccc(CNCc2nc(C3CC3)no2)c1
cytotoxicity at 70.5 h: 8.67%

CN(Cc1ccncc1)C(CO)c1cccc(Br)c1 (stereo not given)
cytotoxicity at 70.5 h: -21%

c1ccc(Cn2cccn2)c(CNCc2cnc(N3CCCC3)nc2)c1
cytotoxicity at 70.5 h: -13.6%

CNC(=O)NC(=O)CCSCc1cc(F)cc2cccnc12
cytotoxicity at 70.5 h: -27.1%

O=C(Nc1ccc(=O)n(Cc2ccccc2Cl)c1)C1CC1
cytotoxicity at 70.5 h: -23.5%

Cc1cc(C)cc(C(=O)N2CCCN(CC(N)=O)CC2)c1
cytotoxicity at 70.5 h: 37.8%

Cc1nc(NC(=O)N[C@H](CO)c2ccccc2)sc1C
cytotoxicity at 70.5 h: -15.6%

CN(C(=O)C1CCC1)C1CCN(c2ccccc2Cl)C1=O (stereo not given)
cytotoxicity at 70.5 h: -26.5%

c1cnn(CCNCc2cnc(N3CCCC3)nc2)c1
cytotoxicity at 70.5 h: -9.32%

Cc1nccn1CCCNc1ncccc1C#N
cytotoxicity at 70.5 h: -13.8%

Cn1cc(NC(=O)Nc2cccc3cccnc23)ccc1=O
cytotoxicity at 70.5 h: 53.3%

Brc1cnc(NCc2ccccc2N2CCOCC2)nc1
cytotoxicity at 70.5 h: -1.21%

Cc1ccnc(NCc2ccccc2N2CCOCC2)n1
cytotoxicity at 70.5 h: -16.7%

COc1c(C)cnc(CSc2nnc(C)s2)c1C
cytotoxicity at 70.5 h: -5.43%

CC(=O)Nc1cc(C(=O)N2CCOCC2c2ccc(C)o2)ccc1F (stereo not given)
cytotoxicity at 70.5 h: -6.36%

Cc1nn(C)c(Cl)c1C1CCCN1c1ncnc2sccc12 (stereo not given)
cytotoxicity at 70.5 h: -1.91%

Cc1cnn(CCNCc2csc(C)n2)c1
cytotoxicity at 70.5 h: -5.62%

Cc1nn(C)c(C)c1C1COCCN1c1ncnc2sccc12 (stereo not given)
cytotoxicity at 70.5 h: -11.4%

COc1ncccc1NC(=O)N1CCC(CN2CCOCC2)CC1
cytotoxicity at 70.5 h: -6.27%

O=C(NCc1ccccc1CN1CCC(O)CC1)Nc1ccncc1
cytotoxicity at 70.5 h: 9.61%

CN(Cc1ccc(F)cc1)C(=O)NCC1(N2CCOCC2)CCSC1 (stereo not given)
cytotoxicity at 70.5 h: 11.7%

Cc1ccccc1C(=O)NCc1ccc(N2CCNC(=O)C2)cc1
cytotoxicity at 70.5 h: -10.2%

CC(=O)c1ccc(OCC(=O)NC(C)CCc2ccco2)cc1 (stereo not given)
cytotoxicity at 70.5 h: -18.1%

Cc1csc(CNC(=O)NCC(O)c2cccc(Cl)c2)n1 (stereo not given)
cytotoxicity at 70.5 h: -11%

Cc1ccc(C)c(C(=O)CN2C(=O)c3ccccc3CS2(=O)=O)c1
cytotoxicity at 70.5 h: -15%

Cc1ccccc1C(=O)CN1C(=O)c2ccccc2CS1(=O)=O
cytotoxicity at 70.5 h: 5.68%

CC(=O)N(C)c1nc(CN2CCOC(Cn3cccn3)C2)cs1 (stereo not given)
cytotoxicity at 70.5 h: -11.7%

O=C(NCCOc1ccc(F)c(F)c1)NCc1ccncc1
cytotoxicity at 70.5 h: -11.2%

COCc1noc(C2(c3ccc(OC)cc3)CCOCC2)n1
cytotoxicity at 70.5 h: -9.29%

CCOCC(=O)NC1(c2cccc(Br)c2)CC1
cytotoxicity at 70.5 h: 13.9%

N#Cc1cc(NC(=O)c2ccsc2)ccc1N1CCC(O)CC1
cytotoxicity at 70.5 h: -11.8%

COc1ccccc1OCC(=O)NS(=O)(=O)c1cc(F)ccc1F
cytotoxicity at 70.5 h: -4.75%

N#Cc1cc(NC(=O)C2CC=CC2)ccc1N1CCC(O)CC1
cytotoxicity at 70.5 h: -0.67%

Cc1ccc(-c2nc(CN3CCOC(c4ccccc4)C3)cs2)o1 (stereo not given)
cytotoxicity at 70.5 h: -9.61%

CCOC(C)c1nc(CN2CCC(CNC(C)=O)CC2)cs1 (stereo not given)
cytotoxicity at 70.5 h: -2.36%

CN(C)S(=O)(=O)N1CCCC1CC(=O)c1cccs1 (stereo not given)
cytotoxicity at 70.5 h: -9.51%

COc1cc(C)c(C(C)NC(=O)Nc2nnc(C)s2)cc1OC (stereo not given)
cytotoxicity at 70.5 h: -11.5%

COc1ccc(OCC(=O)NC(C)c2ccc(F)cc2)c(C(=O)O)c1 (stereo not given)
cytotoxicity at 70.5 h: -7%

OC(CN1CCN(c2ncccn2)CC1)c1cccc(F)c1 (stereo not given)
cytotoxicity at 70.5 h: -9.46%

CC(C)N(C)CCCNC(=O)c1cnc(-c2ccccc2)nc1
cytotoxicity at 70.5 h: 2.52%

Cc1ccccc1CN1CCC(NCC2CNc3ccnn3C2)CC1 (stereo not given)
cytotoxicity at 70.5 h: 0.228%

COc1c(CNC2CCCOc3ccccc32)c(C)nn1C (stereo not given)
cytotoxicity at 70.5 h: -9.23%

N#Cc1ccc(CNC(=O)NC2CCN(CC(F)F)CC2)cc1
cytotoxicity at 70.5 h: -9.49%

COc1ccc(OCC(=O)NC(C)c2ccccc2)c(C(=O)O)c1 (stereo not given)
cytotoxicity at 70.5 h: -7.12%

N#Cc1ccnc(N2CCN(CC(O)c3cccc(F)c3)CC2)c1 (stereo not given)
cytotoxicity at 70.5 h: -7.6%

COc1ccnc(N2CCN(C(=O)c3cnn(C)c3C3CC3)CC2)n1
cytotoxicity at 70.5 h: -6.28%

COc1ccnc(N2CCN(C(=O)c3csc(C(C)C)n3)CC2)n1
cytotoxicity at 70.5 h: 9.24%

Cc1cc2n(n1)CC(CNC1CCN(Cc3ccccc3C)CC1)CN2 (stereo not given)
cytotoxicity at 70.5 h: 5.18%

Cc1nc(CN2CCC(CNC(=O)Nc3ccccn3)CC2)oc1C
cytotoxicity at 70.5 h: -8.33%

COc1ccc(CNC(=O)NC2CCN(CC(F)F)CC2)cc1C
cytotoxicity at 70.5 h: -7.09%

Cc1cc(F)c(S(=O)(=O)NCC(C)(C)N)cc1F
cytotoxicity at 70.5 h: -10.9%

CCC(N)C(=O)N1CCC(OCc2ccc(Cl)c(Cl)c2)CC1 (stereo not given)
cytotoxicity at 70.5 h: 8.03%

CCCNC(c1cccnc1)c1ccc(F)c(C)c1 (stereo not given)
cytotoxicity at 70.5 h: -13.4%
